{
  "source": "paper PMC10373478",
  "about": "“Exploration and Exploitation Approaches Based on Generative Machine Learning to Identify Potent Small Molecule Inhibitors of α-Synuclein Secondary Nucleation” (Journal of Chemical Theory and Computation, 2023)",
  "target": "T1, α-synuclein (αS) (Homo sapiens, UniProt P37840)",
  "T1 construct": "gene SNCA",
  "assay": "seeded aggregation kinetics (ThT fluorescence) at […] compound",
  "assay_type": "biochemical",
  "data": [
    {"smiles": "CN1C(C(=O)Nc2ccccn2)=C(O)c2sc(Cl)cc2S1(=O)=O", "note": "[lornoxicam]", "values": [
      {"measurement": "seeded aggregation kinetics (ThT fluorescence) at 25 and 50 μM compound", "value": "The potency of lornoxicam was mild in comparison to hits found previously, but it was nonetheless observable"}
    ]}
  ]
}
